Holding throughout (format): functional, organism-based
Test [1] deals with Canis familiaris. Nature of the test: In vivo growth hormone(GH) release in beagles after intravenously administered dose of 0.01 mg/kg; 1/1. More on the design: dose 0.01 mg/kg. Particulars: Canis lupus familiaris.
For test [2], the system named is Canis familiaris. Nature of the test: In vivo growth hormone(GH) release in beagles after orally administered dose of 0.25 mg/kg; 6/8. Also on record: dose 0.25 mg/kg. Particulars: Canis lupus familiaris.
Test [3] has as its system Canis familiaris. Nature of the test: In vivo growth hormone(GH) release in beagles after orally administered dose of 0.5 mg/kg;8/8. More on the design: dose 0.5 mg/kg. Particulars: Canis lupus familiaris.
The species named for the next test is Rattus norvegicus. Nature of the test: Concentration required for determining half-maximal release of growth hormone(GH) in the rat pituitary cell assay. Particulars: Pituitary gland cell.
In test [4] the test system is Canis familiaris. Nature of the test: In vivo growth hormone(GH) release in beagles after intravenous administration; NA- Not active. Particulars: Canis lupus familiaris.

Calls of active or inactive are those of the source. The rule behind the calls is not given here.

In general, EC50 refers to the concentration giving half of the maximal effect. Read a low EC50 as higher potency in that assay. For `CCOC(=O)[C@@]1(Cc2ccccc2)CCCN(C(=O)[C@@H](Cc2c[nH]c3ccccc23)NC(=O)C(C)(C)N)C1`, the Response result in the test with Canis familiaris [1] is “inactive”. Further, the Response entry in the test on Canis familiaris [2] was “Partially active”. The Response entry with Canis familiaris [3] was “Active”. In the test filed under Rattus norvegicus, it took 1.6 nM to reach a half-maximal effect (EC50).
`CCOC(=O)[C@]1(Cc2ccccn2)CCCN(C(=O)[C@@H](Cc2c[nH]c3ccccc23)NC(=O)C(C)(C)N)C1` showed an EC50 in the test filed under Rattus norvegicus of 0.2 nM.
In the test listed under Rattus norvegicus, `CCOC(=O)C1(Cc2cscn2)CCCN(C(=O)[C@@H](Cc2c[nH]c3ccccc23)NC(=O)C(C)(C)N)C1` (stereo partly drawn) yielded an EC50 of 1 nM.
In the case of `CCOC(=O)C1(Cc2cccnc2)CCCN(C(=O)[C@@H](Cc2c[nH]c3ccccc23)NC(=O)C(C)(C)N)C1` (stereo partly drawn), a half-maximal effect in the test listed under Rattus norvegicus (EC50) was put at 2.2 nM.
The same measure, in the same setting: then `CCOC(=O)[C@@]1(Cc2cscn2)CCCN(C(=O)[C@@H](Cc2c[nH]c3ccccc23)NC(=O)C(C)(C)N)C1`, with 15 nM; and `CC(C)(N)C(=O)N[C@H](Cc1c[nH]c2ccccc12)C(=O)N1CCC[C@](Cc2ccccn2)(C(=O)O)C1`, with 570 nM.
In the test listed under Rattus norvegicus, `CC(C)(N)C(=O)N[C@H](Cc1c[nH]c2ccccc12)C(=O)N1CCC[C@](Cc2ccccc2)(C(=O)O)C1` registered an EC50 of 190 nM.
Same read-out and setting: in the case of `CC(C)(N)C(=O)N[C@H](Cc1c[nH]c2ccccc12)C(=O)N1CCC[C@](Cc2cscn2)(C(=O)O)C1` it was above 500 nM.
For `CCOC(=O)C1(Cc2cncs2)CCCN(C(=O)[C@@H](Cc2c[nH]c3ccccc23)NC(=O)C(C)(C)N)C1` (stereo partly drawn), the Response result in the test on Canis familiaris [4] was “inactive”. For the same compound, the EC50 in the test listed under Rattus norvegicus came to 6.1 nM.
In the test filed under Rattus norvegicus, `CCOC(=O)C1(Cc2ccncc2)CCCN(C(=O)[C@@H](Cc2c[nH]c3ccccc23)NC(=O)C(C)(C)N)C1` (stereo partly drawn) gave an EC50 of 4.4 nM.
Still for that read-out and setting: then `CCOC(=O)[C@]1(Cc2cscn2)CCCN(C(=O)[C@@H](Cc2c[nH]c3ccccc23)NC(=O)C(C)(C)N)C1`, with 0.5 nM; and `CCOC(=O)C1(Cc2ccccn2)CCCN(C(=O)[C@@H](Cc2c[nH]c3ccccc23)NC(=O)C(C)(C)N)C1` (stereo partly drawn), with 0.5 nM; and `CCOC(=O)C1(Cc2nccs2)CCCN(C(=O)[C@@H](Cc2c[nH]c3ccccc23)NC(=O)C(C)(C)N)C1` (stereo partly drawn), with 4.2 nM.
Turning to `CCOC(=O)[C@@]1(Cc2ccccn2)CCCN(C(=O)[C@@H](Cc2c[nH]c3ccccc23)NC(=O)C(C)(C)N)C1`, the EC50 in the test listed under Rattus norvegicus is 3 nM.
